Patent US20160102363A1, “METHODS AND COMPOSITIONS FOR PREDICTING THERAPEUTIC EFFICACY OF KINASE INHIBITORS IN PATIENTS WITH MYELODYSPLASTIC SYNDROME OR RELATED DISORDERS” (ONCONOVA THERAPEUTICS, INC., priority 2013, published 2016)

Test system: MDS patients
Assay: Clinical hematological response of MDS patients treated with Rigosertib
Type: in vivo, human
Conditions: number of patients of 32 MDS patients
Source text: As used herein, “response” is defined by standard clinical criteria, importantly including amelioration of transfusion-dependent anemia, which is a major hallmark of myelodysplastic syndromes (MDS).
This study sought to identify DNA methylation markers that can predict the therapeutic response to a different, and an even more widely pertinent, class of anti-cancer drugs, namely broad-specificity tyrosine kinase inhibitors (TKI's) or a broad specificity kinase inhibitors. As used herein, “response” is defined by standard clinical criteria, importantly including amelioration of transfusion-dependent anemia, which is a major hallmark of myelodysplastic syndromes (MDS).
Pre-therapy bone marrow mononuclear cells from 32 patients were analyzed using the Illumina 450K methylation array platform.
In summary, seven (7) of 32 MDS patients had complete response or CR (Transfusion independence (TI)+increase in hemoglobin (Hb)>2 g/dL), ten (10) had partial response or PR (TI without Hb increase) and fifteen (15) had no response or NR. […] Bisulfite sequencing (which allows quantification of multiple consecutive CpGs in an amplicon) of several differentially methylated loci confirmed the Illumina 450K data.

COc1cc(OC)c(/C=C/S(=O)(=O)Cc2ccc(OC)c(NCC(=O)[O-])c2)c(OC)c1.[Na+] [Rigosertib]
complete response or CR (Transfusion independence (TI)+increase in hemoglobin (Hb)>2 g/dL): 7
no response or NR: 15
partial response or PR (TI without Hb increase): 10
